Counter-ions that a name gives are not always drawn.
Tested on: KMS.12.BM cells
Experiment: KMS.12.BM cell viability assay
Type: cell-based
Conditions: 72 h; KMS.12.BM human myeloma cells, 3 days, Cell Titer-GLO ATP quantitation; read-out: KMS cellular IC50
Description: KMS.12.BM cell line (human myeloma) was purchased from JCRB (Osaka, Japan) and maintained in RPMI with 10% FBS culture medium. To measure the cytotoxic activity of the compounds through ATP quantitation, the KMS.12.BM cells are plated in the RPMI culture medium at 5000 cells/well/per 100 μL into a 96-well polystyrene clear black tissue culture plate (Greiner-bio-one through VWR, NJ), in the presence or absence of a concentration range of test compounds. After 3 days, […] Cell Titer-GLO Luminescent (Promega, Madison, Wis.) cell culture agent is added to each well for 10 minutes at room temperature to stabilize the luminescent signal. This determines the number of viable cells in culture based on quantitation of the ATP present, which signals the presence of metabolically active cells. Luminescence is measured with the Top Count 384 (Packard Bioscience through Perkin Elmer, Boston, Mass.).
IC50 data for the Examples is presented in Table 4 as determined by Assay B1.

## Cc1cc2c(ccc3nnc(C)n32)n1Cc1cccc(C#N)c1 [Example 20, 3-[(1,7-dimethyl-6H-pyrrolo[2,3-e][1,2,4]triazolo[4,3-a]pyridine-6-yl)methyl]benzonitrile]
  IC50: ≤ 1000 nM

## COC1CN(Cc2cccc(Cn3c(C)cc4c3ccc3nnc(C)n34)c2)C1 [Example 54, 6-{3-[(3-methoxyazetidin-1-yl)methyl]benzyl}-1,7-dimethyl-6H-pyrrolo[2,3-e][1,2,4]triazolo[4,3-a]pyridine]
  IC50: ≤ 1000 nM

## Cc1cc2c(cc(NC(N)=O)c3nnc(C)n32)n1Cc1cccc(Cl)c1 [Example 231, 1-(6-(3-Chlorobenzyl)-1,7-dimethyl-6H-pyrrolo[2,3-e][1,2,4]triazolo[4,3-a]pyridin-4-yl)urea]
  IC50: ≤ 1000 nM

## Cc1nnc2ccc3c(ccn3C(C)c3ccccc3)n12 (racemic) [Example 4, 1-methyl-6-(1-phenylethyl)-6H-pyrrolo[2,3-e][1,2,4]triazolo[4,3-a]pyridine]
  IC50: 1000 to 10000 nM

## Cc1cc2c(cc(NC(N)=O)c3nnc(C)n32)n1Cc1ccccc1 [Example 252, 1-(6-Benzyl-1,7-dimethyl-6H-pyrrolo[2,3-e][1,2,4]triazolo[4,3-a]pyridin-4-yl)urea]
  IC50: ≤ 1000 nM

## Cc1nnc2ccc3c(cc(-c4ccn(CCC(N)=O)n4)n3Cc3ccccc3)n12 [Example 98, 3-[3-(6-benzyl-1-methyl-6H-pyrrolo[2,3-e][1,2,4]triazolo[4,3-a]pyridin-7-yl)-1H-pyrazol-1-yl]propanamide]
  IC50: ≤ 1000 nM

## Cc1nnc2ccc3c(cc(-c4ccn(C5(CC#N)CNC5)n4)n3Cc3ccccc3)n12 [Example 90, {3-[3-(6-benzyl-1-methyl-6H-pyrrolo[2,3-e][1,2,4]triazolo[4,3-a]pyridin-7-yl)-1H-pyrazol-1-yl]azetidin-3-yl}acetonitrile]
  IC50: ≤ 1000 nM

## Cc1cc2c(cc(NC(N)=O)c3nnc(C)n32)n1Cc1ccccc1F [Example 238, 1-(6-(2-Fluorobenzyl)-1,7-dimethyl-6H-pyrrolo[2,3-e][1,2,4]triazolo[4,3-a]pyridin-4-yl)urea]
  IC50: 1000 to 10000 nM

## Cc1nnc2ccc3c(cc(-c4cn(CCC#N)cn4)n3Cc3ccccc3)n12 [Example 81, 3-[4-(6-benzyl-1-methyl-6H-pyrrolo[2,3-e][1,2,4]triazolo[4,3-a]pyridin-7-yl)-1H-imidazol-1-yl]propanenitrile]
  IC50: ≤ 1000 nM

## Cc1cc2c(ccc3nnc(C)n32)n1Cc1cccc(CN2CCOCC2)c1 [Example 38, 1,7-dimethyl-6-[3-(morpholin-4-ylmethyl)benzyl]-6H-pyrrolo[2,3-e][1,2,4]triazolo[4,3-a]pyridine]
  IC50: ≤ 1000 nM

## CCC(=O)Nc1cc2c(cc(C)n2Cc2ccccc2)n2c(C)nnc12 [Example 268, N-(6-Benzyl-1,7-dimethyl-6H-pyrrolo[2,3-e][1,2,4]triazolo[4,3-a]pyridin-4-yl)propionamide]
  IC50: ≤ 1000 nM

## Cc1cc2c(cc(Nc3ccccc3)c3nnc(C)n32)n1Cc1ccccc1 [Example 260, 6-Benzyl-1,7-dimethyl-N-phenyl-6H-pyrrolo[2,3-e][1,2,4]triazolo[4,3-a]pyridin-4-amine]
  IC50: 1000 to 10000 nM

## Cc1nnc2ccc3c(cc(-c4cncs4)n3Cc3ccccc3)n12 [Example 69, 6-benzyl-1-methyl-7-(1,3-thiazol-5-yl)-6H-pyrrolo[2,3-e][1,2,4]triazolo[4,3-a]pyridine]
  IC50: ≤ 1000 nM

## CNC(=O)c1cc2c(ccc3nnc(C)n32)n1Cc1cc(Cl)cc(CN2CC(C)(C)C2)c1 [Example 135, 6-{3-Chloro-5-[(3,3-dimethylazetidin-1-yl)methyl]benzyl}-N,1-dimethyl-6H-pyrrolo[2,3-e][1,2,4]triazolo[4,3-a]pyridine-7-carboxamide bis(trifluoroacetate) salt]
  IC50: ≤ 1000 nM

## CCC(=O)N1CC(n2ccc(-c3cc4c(ccc5nnc(C)n54)n3Cc3cccc(Cl)c3)n2)C1 [Example 163, 6-(3-Chlorobenzyl)-1-methyl-7-[1-(1-propionylazetidin-3-yl)-1H-pyrazol-3-yl]-6H-pyrrolo[2,3-e][1,2,4]triazolo[4,3-a]pyridine trifluoroacetate salt]
  IC50: ≤ 1000 nM

## Cc1nnc2ccc3c(cc(C(=O)NC4CCC4)n3Cc3ccccc3)n12 [Example 85, 6-benzyl-N-cyclobutyl-1-methyl-6H-pyrrolo[2,3-e][1,2,4]triazolo[4,3-a]pyridine-7-carboxamide]
  IC50: ≤ 1000 nM

## Cc1cc2c(cc(NC3CCN(C)CC3)c3nnc(C)n32)n1Cc1ccccn1 [Example 153, 1,7-dimethyl-N-(1-methylpiperidin-4-yl)-6-(pyridin-2-ylmethyl)-6H-pyrrolo[2,3-e][1,2,4]triazolo[4,3-a]pyridin-4-amine]
  IC50: ≤ 1000 nM

## CCCNC(=O)c1cc2c(ccc3nnc(C)n32)n1Cc1ccccc1 [Example 83, 6-benzyl-1-methyl-N-propyl-6H-pyrrolo[2,3-e][1,2,4]triazolo[4,3-a]pyridine-7-carboxamide]
  IC50: ≤ 1000 nM

## Cc1cc2c(cc(NC(N)=O)c3nnc(C)n32)n1Cc1cccc(F)c1 [Example 235, 1-(6-(3-Fluorobenzyl)-1,7-dimethyl-6H-pyrrolo[2,3-e][1,2,4]triazolo[4,3-a]pyridin-4-yl)urea]
  IC50: ≤ 1000 nM

## Cc1cc2c(cc(NC3CCN(C)CC3)c3nnc(C)n32)n1Cc1cccnc1 [Example 154, 1,7-dimethyl-N-(1-methylpiperidin-4-yl)-6-(pyridin-3-ylmethyl)-6H-pyrrolo[2,3-e][1,2,4]triazolo[4,3-a]pyridin-4-amine]
  IC50: ≤ 1000 nM

## Cc1nnc2ccc3c(cc(C(=O)NCC4CC4)n3Cc3cccc(Cl)c3)n12 [Example 114, 6-(3-Chlorobenzyl)-N-(cyclopropylmethyl)-1-methyl-6H-pyrrolo[2,3-e][1,2,4]triazolo[4,3-a]pyridine-7-carboxamide trifluoroacetate salt]
  IC50: ≤ 1000 nM

## Cc1nnc2ccc3c(cc(C(=O)N4CC(C#N)C4)n3Cc3ccccc3)n12 [Example 60, 1-[(6-benzyl-1-methyl-6H-pyrrolo[2,3-e][1,2,4]triazolo[4,3-a]pyridin-7-yl)carbonyl]azetidine-3-carbonitrile]
  IC50: ≤ 1000 nM

## Cc1cc2c(ccc3nnc(C)n32)n1Cc1ccc(Cl)cc1 [Example 10, 6-(4-chlorobenzyl)-1,7-dimethyl-6H-pyrrolo[2,3-e][1,2,4]triazolo[4,3-a]pyridine]
  IC50: ≤ 1000 nM

## Cc1cc2c(ccc3nnc(C)n32)n1Cc1cccc(CN2CCN(C)CC2)c1 [Example 47, 1,7-dimethyl-6-{3-[(4-methylpiperazin-1-yl)methyl]benzyl}-6H-pyrrolo[2,3-e][1,2,4]triazolo[4,3-a]pyridine]
  IC50: 1000 to 10000 nM

## Cc1cc2c(ccc3nnc(C)n32)n1Cc1ccc(CN2CC(O)C2)cc1 [Example 52, 1-{4-[(1,7-dimethyl-6H-pyrrolo[2,3-e][1,2,4]triazolo[4,3-a]pyridin-6-yl)methyl]benzyl}azetidin-3-ol]
  IC50: 1000 to 10000 nM

## Cc1nnc2ccc3c(cc(-c4ccn(C(C)CC#N)n4)n3Cc3ccccc3)n12 (racemic) [Example 87, 3-[3-(6-benzyl-1-methyl-6H-pyrrolo[2,3-e][1,2,4]triazolo[4,3-a]pyridin-7-yl)-1H-pyrazol-1-yl]butanenitrile trifluoroacetate salt (racemate)]
  IC50: ≤ 1000 nM

## Cc1nnc2ccc3c(cc(-c4ccn(C5CN(CCO)C5)n4)n3Cc3cccc(Cl)c3)n12 [Example 179, 2-(3-{3-[6-(3-Chlorobenzyl)-1-methyl-6H-pyrrolo[2,3-e][1,2,4]triazolo[4,3-a]pyridin-7-yl]-1H-pyrazol-1-yl}azetidin-1-yl)ethanol bis(trifluoroacetate) salt]
  IC50: ≤ 1000 nM

## Cc1cc2c(ccc3nnc(C)n32)n1Cc1cccc(Cl)c1 [Example 9, 6-(3-chlorobenzyl)-1,7-dimethyl-6H-pyrrolo[2,3-e][1,2,4]triazolo[4,3-a]pyridine]
  IC50: ≤ 1000 nM

## CNC(=O)c1cc2c(ccc3nnc(C)n32)n1Cc1cccc(C(F)(F)F)c1 [Example 136, N,1-dimethyl-6-[3-(trifluoromethyl)benzyl]-6H-pyrrolo[2,3-e][1,2,4]triazolo[4,3-a]pyridine-7-carboxamide trifluoroacetate salt]
  IC50: ≤ 1000 nM

## CNC(=O)c1cc2c(ccc3nnc(C)n32)n1Cc1cccc(Cl)c1 [Example 99, 6-(3-chlorobenzyl)-N,1-dimethyl-6H-pyrrolo[2,3-e][1,2,4]triazolo[4,3-a]pyridine-7-carboxamide]
  IC50: ≤ 1000 nM

## Cc1nnc2ccc3c(cc(-c4ncco4)n3Cc3cc(Cl)cc(CN4CCCC4)c3)n12 [Example 197, 6-[3-Chloro-5-(pyrrolidin-1-ylmethyl)benzyl]-1-methyl-7-(1,3-oxazol-2-yl)-6H-pyrrolo[2,3-e][1,2,4]triazolo[4,3-a]pyridine bis(trifluoroacetate) salt]
  IC50: ≤ 1000 nM

## CCNc1cc2c(cc(C)n2Cc2ccccc2)n2c(C)nnc12 [Example 259, 6-Benzyl-N-ethyl-1,7-dimethyl-6H-pyrrolo[2,3-e][1,2,4]triazolo[4,3-a]pyridin-4-amine]
  IC50: ≤ 1000 nM

## CCNC(=O)c1cc2c(ccc3nnc(C)n32)n1Cc1cc(Cl)cc(CN2CCCC2)c1 [Example 133, 6-[3-Chloro-5-(pyrrolidin-1-ylmethyl)benzyl]-N-ethyl-1-methyl-6H-pyrrolo[2,3-e][1,2,4]triazolo[4,3-a]pyridine-7-carboxamide bis(trifluoroacetate) salt]
  IC50: ≤ 1000 nM

## Cc1nnc2ccc3c(cc(C(=O)NCCCO)n3Cc3ccccc3)n12 [Example 123, 6-Benzyl-N-(3-hydroxypropyl)-1-methyl-6H-pyrrolo[2,3-e][1,2,4]triazolo[4,3-a]pyridine-7-carboxamide trifluoroacetate salt]
  IC50: ≤ 1000 nM

From US10442803B2, “Tricyclic heterocycles as bet protein inhibitors” (Incyte Corporation, priority 2013, dated 2019)
